Among the data in patent US8847000B2 (priority 2006, dated 2014) are IC50 values, retold here.

The assay deals with cell proliferation. The class given is cell-based.

In turn, Arsenious acid yielded an IC50 of 10 µM.

The substance trimethylarsineoxide [TMAO] displayed a half-maximal inhibitory concentration (IC50) of over 6000 µM.

The term IC50 denotes the concentration at which inhibition is half-maximal. A low value points to inhibition by little substance.
